Assay results as given in the NIST ThermoML archive (doi:10.1016/j.jct.2014.01.028).
± gives the expanded uncertainty stated by the source.

Conditions: for electrical conductivity / mass density / viscosity: 101.33 kPa, Liquid; for electrical conductivity: Alternating current cell with electrodes; for mass density: Pycnometric method; for viscosity: Capillary tube (Ostwald / Ubbelohde) method; for Glass transition temperature: DTA

**Q.** For `C[n+]1ccn(CCCCn2cc[n+](C)c2)c1.c1c[n-]cn1.c1c[n-]cn1`, which electrical conductivity (293.15 K) is on record?
**A.** 0.0266 ± 0.0008 S/m

**Q.** And the mass density (293.15 K)?
**A.** 1177.4 ± 3.7 kg/m3

**Q.** And the electrical conductivity (303.15 K)?
**A.** 0.0686 ± 0.0022 S/m

**Q.** What about the viscosity (303.15 K) of the same molecule?
**A.** 3058 ± 220 mPa·s

**Q.** What about the mass density (303.15 K) of the same molecule?
**A.** 1172.8 ± 3.7 kg/m3

**Q.** And the electrical conductivity (313.15 K)?
**A.** 0.146 ± 0.0047 S/m

**Q.** What about the viscosity (313.15 K) of the same molecule?
**A.** 1003 ± 64 mPa·s

**Q.** And the mass density (313.15 K)?
**A.** 1166.9 ± 3.7 kg/m3

**Q.** What about the electrical conductivity (323.15 K) of the same molecule?
**A.** 0.283 ± 0.009 S/m

**Q.** And the viscosity (323.15 K)?
**A.** 427.1 ± 22 mPa·s

**Q.** What about the mass density (323.15 K) of the same molecule?
**A.** 1158.7 ± 3.7 kg/m3

**Q.** What about the electrical conductivity (333.15 K) of the same molecule?
**A.** 0.498 ± 0.016 S/m

**Q.** What about the viscosity (333.15 K) of the same molecule?
**A.** 206.3 ± 9.1 mPa·s

**Q.** And the mass density (333.15 K)?
**A.** 1154.3 ± 3.7 kg/m3

**Q.** What about the electrical conductivity (343.15 K) of the same molecule?
**A.** 0.955 ± 0.03 S/m

**Q.** What about the viscosity (343.15 K) of the same molecule?
**A.** 111.5 ± 4.6 mPa·s

**Q.** And the mass density (343.15 K)?
**A.** 1148.9 ± 3.7 kg/m3

**Q.** And the Glass transition temperature?
**A.** -54.34 ± 2 °C

**Q.** With `C[n+]1ccn(CCn2cc[n+](C)c2)c1.c1c[n-]cn1.c1c[n-]cn1` as the molecule, how does the electrical conductivity (293.15 K) read?
**A.** 0.0111 ± 0.00035 S/m

**Q.** And the mass density (293.15 K)?
**A.** 1210.8 ± 3.9 kg/m3

**Q.** And the electrical conductivity (303.15 K)?
**A.** 0.0309 ± 0.00098 S/m

**Q.** What about the viscosity (303.15 K) of the same molecule?
**A.** 6306 ± 530 mPa·s

**Q.** What about the mass density (303.15 K) of the same molecule?
**A.** 1206 ± 3.9 kg/m3

**Q.** And the electrical conductivity (313.15 K)?
**A.** 0.0684 ± 0.0022 S/m

**Q.** And the viscosity (313.15 K)?
**A.** 2538 ± 180 mPa·s

**Q.** What about the mass density (313.15 K) of the same molecule?
**A.** 1200 ± 3.9 kg/m3

**Q.** And the electrical conductivity (323.15 K)?
**A.** 0.145 ± 0.0046 S/m

**Q.** What about the viscosity (323.15 K) of the same molecule?
**A.** 854.7 ± 52 mPa·s

**Q.** And the mass density (323.15 K)?
**A.** 1191.5 ± 3.9 kg/m3

**Q.** And the electrical conductivity (333.15 K)?
**A.** 0.254 ± 0.0081 S/m

**Q.** What about the viscosity (333.15 K) of the same molecule?
**A.** 440.2 ± 22 mPa·s

**Q.** And the mass density (333.15 K)?
**A.** 1185.7 ± 3.9 kg/m3

**Q.** What about the electrical conductivity (343.15 K) of the same molecule?
**A.** 0.425 ± 0.013 S/m

**Q.** And the viscosity (343.15 K)?
**A.** 145.1 ± 8.2 mPa·s

**Q.** And the mass density (343.15 K)?
**A.** 1178.9 ± 3.9 kg/m3

**Q.** What about the Glass transition temperature of the same molecule?
**A.** -56.18 ± 2 °C

**Q.** With `C[n+]1ccn(CCO)c1.c1c[n-]cn1` [1-(2-hydroxyethyl)-3-methylimidazolium imidazolide] as the molecule, how does the electrical conductivity (293.15 K) read?
**A.** 0.000168 ± 5e-06 S/m

**Q.** And the mass density (293.15 K)?
**A.** 1301 ± 4.5 kg/m3

**Q.** What about the electrical conductivity (303.15 K) of the same molecule?
**A.** 0.000636 ± 2e-05 S/m

**Q.** And the viscosity (303.15 K)?
**A.** 8896 ± 790 mPa·s

**Q.** What about the mass density (303.15 K) of the same molecule?
**A.** 1295.7 ± 4.5 kg/m3

**Q.** And the electrical conductivity (313.15 K)?
**A.** 0.00229 ± 7e-05 S/m

**Q.** And the viscosity (313.15 K)?
**A.** 3632 ± 280 mPa·s

**Q.** What about the mass density (313.15 K) of the same molecule?
**A.** 1289.8 ± 4.5 kg/m3

**Q.** And the electrical conductivity (323.15 K)?
**A.** 0.00646 ± 0.00021 S/m

**Q.** What about the viscosity (323.15 K) of the same molecule?
**A.** 1255 ± 82 mPa·s

**Q.** And the mass density (323.15 K)?
**A.** 1283.7 ± 4.5 kg/m3

**Q.** What about the electrical conductivity (333.15 K) of the same molecule?
**A.** 0.0174 ± 0.00055 S/m

**Q.** What about the viscosity (333.15 K) of the same molecule?
**A.** 615.2 ± 34 mPa·s

**Q.** And the mass density (333.15 K)?
**A.** 1278.1 ± 4.5 kg/m3

**Q.** What about the electrical conductivity (343.15 K) of the same molecule?
**A.** 0.0391 ± 0.0013 S/m

**Q.** And the viscosity (343.15 K)?
**A.** 290.4 ± 14 mPa·s

**Q.** And the mass density (343.15 K)?
**A.** 1272.3 ± 4.4 kg/m3

**Q.** What about the Glass transition temperature of the same molecule?
**A.** -54.01 ± 2 °C

**Q.** Which electrical conductivity (293.15 K) does the source give for `C[n+]1ccn(CCCN)c1.c1c[n-]cn1` [1-(3-aminopropyl)-3-methylimidazolium imidazolide] here?
**A.** 0.0842 ± 0.0027 S/m

**Q.** And the viscosity (293.15 K)?
**A.** 220 ± 9.6 mPa·s

**Q.** And the mass density (293.15 K)?
**A.** 1148.4 ± 3.5 kg/m3

**Q.** And the electrical conductivity (303.15 K)?
**A.** 0.166 ± 0.0053 S/m

**Q.** What about the viscosity (303.15 K) of the same molecule?
**A.** 98.4 ± 4 mPa·s

**Q.** And the mass density (303.15 K)?
**A.** 1143.1 ± 3.5 kg/m3

**Q.** And the electrical conductivity (313.15 K)?
**A.** 0.304 ± 0.0097 S/m

**Q.** What about the viscosity (313.15 K) of the same molecule?
**A.** 54.5 ± 2 mPa·s

**Q.** What about the mass density (313.15 K) of the same molecule?
**A.** 1137.5 ± 3.5 kg/m3

**Q.** And the electrical conductivity (323.15 K)?
**A.** 0.504 ± 0.016 S/m

**Q.** What about the viscosity (323.15 K) of the same molecule?
**A.** 32.1 ± 1.2 mPa·s

**Q.** What about the mass density (323.15 K) of the same molecule?
**A.** 1131.8 ± 3.5 kg/m3

**Q.** What about the electrical conductivity (333.15 K) of the same molecule?
**A.** 0.738 ± 0.024 S/m

**Q.** What about the viscosity (333.15 K) of the same molecule?
**A.** 19.9 ± 0.7 mPa·s

**Q.** And the mass density (333.15 K)?
**A.** 1126.3 ± 3.5 kg/m3

**Q.** What about the electrical conductivity (343.15 K) of the same molecule?
**A.** 1.09 ± 0.035 S/m

**Q.** And the viscosity (343.15 K)?
**A.** 13.7 ± 0.5 mPa·s

**Q.** And the mass density (343.15 K)?
**A.** 1120.8 ± 3.5 kg/m3

**Q.** And the Glass transition temperature?
**A.** -55.02 ± 2 °C

**Q.** For `CCCCn1cc[n+](C)c1.c1c[n-]cn1` [1-butyl-3-methylimidazolium imidazolide], which electrical conductivity (293.15 K) is on record?
**A.** 0.0737 ± 0.0023 S/m

**Q.** And the viscosity (293.15 K)?
**A.** 533.3 ± 28 mPa·s

**Q.** What about the mass density (293.15 K) of the same molecule?
**A.** 1085.3 ± 3.2 kg/m3

**Q.** What about the electrical conductivity (303.15 K) of the same molecule?
**A.** 0.15 ± 0.0048 S/m

**Q.** And the viscosity (303.15 K)?
**A.** 272.6 ± 13 mPa·s

**Q.** And the mass density (303.15 K)?
**A.** 1079.9 ± 3.2 kg/m3

**Q.** What about the electrical conductivity (313.15 K) of the same molecule?
**A.** 0.284 ± 0.009 S/m

**Q.** What about the viscosity (313.15 K) of the same molecule?
**A.** 140 ± 6 mPa·s

**Q.** What about the mass density (313.15 K) of the same molecule?
**A.** 1073.2 ± 3.2 kg/m3

**Q.** What about the electrical conductivity (323.15 K) of the same molecule?
**A.** 0.481 ± 0.015 S/m

**Q.** What about the viscosity (323.15 K) of the same molecule?
**A.** 76.8 ± 2.9 mPa·s

**Q.** What about the mass density (323.15 K) of the same molecule?
**A.** 1066.5 ± 3.2 kg/m3

**Q.** And the electrical conductivity (333.15 K)?
**A.** 0.713 ± 0.023 S/m

**Q.** And the viscosity (333.15 K)?
**A.** 47.5 ± 1.7 mPa·s

**Q.** And the mass density (333.15 K)?
**A.** 1060.4 ± 3.2 kg/m3

**Q.** What about the electrical conductivity (343.15 K) of the same molecule?
**A.** 1.01 ± 0.032 S/m

**Q.** What about the viscosity (343.15 K) of the same molecule?
**A.** 34 ± 1.2 mPa·s

**Q.** What about the mass density (343.15 K) of the same molecule?
**A.** 1054.1 ± 3.2 kg/m3

**Q.** And the Glass transition temperature?
**A.** -56.01 ± 2 °C

**Q.** Which electrical conductivity (293.15 K) does the source give for `CCn1cc[n+](C)c1.c1c[n-]cn1` [1-ethyl-3-methylimidazolium imidazolide] here?
**A.** 0.27 ± 0.0086 S/m

**Q.** And the viscosity (293.15 K)?
**A.** 191.8 ± 8.1 mPa·s

**Q.** What about the mass density (293.15 K) of the same molecule?
**A.** 1113.5 ± 3.3 kg/m3

**Q.** What about the electrical conductivity (303.15 K) of the same molecule?
**A.** 0.487 ± 0.015 S/m

**Q.** What about the viscosity (303.15 K) of the same molecule?
**A.** 87.9 ± 3.5 mPa·s

**Q.** And the mass density (303.15 K)?
**A.** 1106.7 ± 3.3 kg/m3

**Q.** What about the electrical conductivity (313.15 K) of the same molecule?
**A.** 0.804 ± 0.026 S/m

**Q.** What about the viscosity (313.15 K) of the same molecule?
**A.** 42.4 ± 1.6 mPa·s

**Q.** And the mass density (313.15 K)?
**A.** 1100.3 ± 3.3 kg/m3

**Q.** And the electrical conductivity (323.15 K)?
**A.** 1.24 ± 0.039 S/m

**Q.** And the viscosity (323.15 K)?
**A.** 22.9 ± 0.9 mPa·s

**Q.** What about the mass density (323.15 K) of the same molecule?
**A.** 1092.5 ± 3.3 kg/m3

**Q.** What about the electrical conductivity (333.15 K) of the same molecule?
**A.** 1.69 ± 0.054 S/m

**Q.** And the viscosity (333.15 K)?
**A.** 14.8 ± 0.5 mPa·s

**Q.** And the mass density (333.15 K)?
**A.** 1086.3 ± 3.3 kg/m3

**Q.** What about the electrical conductivity (343.15 K) of the same molecule?
**A.** 2.11 ± 0.067 S/m

**Q.** What about the viscosity (343.15 K) of the same molecule?
**A.** 8.6 ± 0.3 mPa·s

**Q.** And the mass density (343.15 K)?
**A.** 1079.7 ± 3.3 kg/m3

**Q.** And the Glass transition temperature?
**A.** -60.01 ± 2 °C
